Source: patent US20070025920A1, “Stable Pharmaceutical Solution Formulations for Pressurized Metered Dose Inhalers” (priority 2004, published 2007)
Read-outs that look alike come from different tables or passages of the source.

Columns and labels:
[1] = Stability study of the 1 μg/63 μl formulation with 15.2 M phosphoric acid, upright and inverted cans at 40° C. and 75% relative humidity; type: physicochemical; conditions: 15% w/w ethanol, HFA 134a, 15.2 M phosphoric acid 0.001 to 0.0027% w/w, six months
Experimental: The formulation of Table 4 (120 actuations/canister, overage of 30 actuations) was filled in aluminum canisters having the internal surface coated with Teflon and fitted with commercial valves having a 63 μl metering chamber. A stability study was carried out by storing the formulation in upright and inverted cans at 40° C. and 75% relative humidity.

[2] = 4 μg per actuation, HCl-stabilised HFA 134a/ethanol solution; stored upright at 5° C.; after nine months; mean of 2 cans; cited from earlier work
[3] = Stability of the TA 2005 + budesonide HFA 134a composition with phosphoric acid, 40° C. and 75% relative humidity; type: physicochemical; conditions: TA 2005 1 μg + budesonide 200 μg/actuation, phosphoric acid 85% 0.0032 or 0.0064% w/w, 0.15% w/w water, three months
Experimental: Two compositions were tested containing TA 2005 and budesonide as active ingredients and two different concentrations of phosphoric acid.
Volume of the valve: 63 μl; strength: TA 2005 1 μg+budesonide 200 μg/actuation; no. of actuations: 120 (34 overfilling doses).
The two active ingredients in the compositions were stable after three months storage at 40° C. and 75% relative humidity, giving residual percent amounts of at least 95% TA 2005 and about 100% of Budesonide.

[4] = Stability study of 1 μg/63 μl formulations with 0.1M hydrochloric acid, upright cans at 40° C. and 75% relative humidity; type: physicochemical; conditions: 15 w/w ethanol, HFA 134a, three months
Experimental: Two aluminum canisters having the internal surface coated with Teflon and fitted with commercial valves having a 63 μl metering chamber were filled with the following formulations shown in Table 3. A stability study was carried out by storing the formulations in upright cans at 40° C. and 75% relative humidity.

[5] = 3.5 μg/50 μl, cited from earlier work

## COc1ccc(C[C@@H](C)NC[C@H](O)c2ccc(O)c3[nH]c(=O)ccc23)cc1.Cl [TA 2005, 8-hydroxy-5-[(1R)-1-hydroxy-2-[[(1R)-2-(4-methoxyphenyl)-1-methylethyl]amino]ethyl]-2(1H)-quinolinone hydrochloride]
[1]
  residual percent amount of TA 2005: up to 98%
[2]
  TA 2005 assay: higher than 95%
[3]
  residual percent amount: at least 95%
[4]; hydrochloric acid 0.1M 0.018 w/w
  percent amount of TA 2005: 73%
[4]; hydrochloric acid 0.1M 0.027 w/w
  percent amount of TA 2005: 77%
[5]; HFA 134a, 12% w/w ethanol, 1.0% w/w isopropyl myristate, 1.0 μl 0.08M HCl per can (apparent pH about 4.8), Initial
  TA 2005 content, per cent nominal drug concentration: 100.0 per cent
[5]; HFA 134a, 12% w/w ethanol, 1.0% w/w isopropyl myristate, 1.4 μl 0.08M HCl per can (apparent pH about 3.2), Initial
  TA 2005 content, per cent nominal drug concentration: 100.0 per cent
[5]; 1.0 μl 0.08M HCl per can, 50° C., 22 days upright
  TA 2005 content, per cent nominal drug concentration: 98.3 per cent
[5]; 1.0 μl 0.08M HCl per can, 50° C., 83 days upright
  TA 2005 content, per cent nominal drug concentration: 99.4 per cent
[5]; 1.4 μl 0.08M HCl per can, 50° C., 22 days upright
  TA 2005 content, per cent nominal drug concentration: 98.2 per cent
[5]; 1.4 μl 0.08M HCl per can, 50° C., 83 days upright
  TA 2005 content, per cent nominal drug concentration: 98.8 per cent
